Data as given in US20120271010A1, “HYDROPHILIC POLYMER COMPOUND HAVING ANTICOAGULATION EFFECT” (TORAY INDUSTRIES, INC., priority 2009, published 2012).

Test system: blood collected from a volunteer
Assay: Measurement of whole blood clotting time (Sonoclot, ACT ONSET)
Design: species or system human
Description: The blood collected from a volunteer and citric acid were mixed at a volume ratio of 9/1 to prepare blood supplemented with citric acid.
In a cuvette (NON-ACTIVATED CLOTTING TEST KIT), 18 μL of physiological saline solution was placed, and 14.8 μL of calcicol was added thereto, followed by further adding 342 μL of blood supplemented with citric acid. Thereafter, the measurement using Sonoclot Blood Coagulation/Platelet Function Analyzer (IMI) was carried out to define the obtained ACT ONSET value as whole blood clotting time. The whole blood clotting time of the blood collected by volunteer was 545 seconds.

## CC1CNc2c(cccc2S(=O)(=O)N[C@@H](CCCNC(=N)N)C(=O)N2CC[C@@H](C)C[C@@H]2C(=O)O)C1 (mixture of isomers) [argatroban, (2R,4R)-4-methyl-1-((2S)-2-{[(3RS)-3-methyl-1,2,3,4-tetrahydroquinolin-8-yl]sulfonyl}amino-5-guanidinopentanoyl)piperidin-2-carboxylic acid]
2 μM argatroban solution in place of physiological saline solution
  Whole blood clotting time: 531 s
10 μM argatroban solution in place of physiological saline solution
  Whole blood clotting time: 746 s
20 μM argatroban solution in place of physiological saline solution
  Whole blood clotting time: 849 s
